The text below walks through data of patent US20160194358A1, “LINEAR PEPTIDE ANTIBIOTCS” (priority 2013, published 2016).

Test [1] deals with Escherichia coli strain MC4100 IMP-4213, which harbors an LptD mutation. The conditions noted are these: E. coli MC4100 IMP-4213, 35° C., 22 hours. An outline of the steps:
(§1)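 CLSI broth microdilution in cation-adjusted Mueller Hinton Broth with 0.002% Tween-80, two-fold dilutions starting at 64 μg/ml.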

Test [2] deals with methicillin resistant Staphylococcus aureus (MRSA) strain USA300 (NRS384). Conditions: MRSA USA300 (NRS384), 35° C., 22 hours. An outline of the steps:
as §1

Test [3] has as its system MRSA strain USA300. The conditions noted are these: Compound 217 with imipenem, synergy defined as sum of FICs ≦0.5.
Experimental: In this assay in each axis of a 96-well plate contains a 2-fold dilution of a given agent, such that each well contains a unique combination of the agents being tested.
To create a checkerboard dilution scheme, imipenem was diluted in Mueller Hinton II Broth+0.002% Tween-80 to twice the final desired concentration, and six 2-fold serial dilutions were performed in the same media yielding seven imipenem concentrations. Dilutions of Compound 217 were prepared similarly except that ten dilutions were performed for a total of eleven concentrations. For each concentration of imipenem, 50 uL aliquots were transferred to columns 1-12 of a given row of a 96-well clear polypropylene assay plate. For each concentration of Compound 217, 50 uL were transferred to rows A-H of a given column of the same plate. […]
MRSA strain USA300 was grown overnight at 35° C. on Mueller Hinton Agar plates, and colonies were suspended in Mueller Hinton II Broth+0.002% Tween-80 to a final density of 1*10^7 cfu/ml. […] The plate was incubated at 35° C. for 22 hours after which growth was determined via visual inspection. For each sub-MIC concentration of imipenem, the concentration of Compound 217 required to prevent visible growth was recorded, and the fractional inhibitor concentration (FIC) of each agent was calculated by dividing the concentration of each agent by MIC of the agent alone. […]
Test [4] deals with MRSA strain USA300. The conditions noted are these: 0.5 ug/mL imipenem plus 0.125 ug/mL Compound 217.
Experimental: Time-kill experiments were performed in 96-well incubation plates using Mueller Hinton II Broth+0.002% Tween-80 as the growth media. Individual wells contained imipenem alone, Compound 217 alone, or a combination of both agents at various concentrations. MRSA strain USA300 was grown overnight at 35° C. on Mueller Hinton Agar plates, and colonies were suspended in Mueller Hinton II Broth+0.002% Tween-80 to a final density of 2*10^8 cfu/mL. To each well of the incubation plates, 5 uL of this suspension were added, resulting in an initial density of 1*10^7 cfu/mL. Plates were incubated at 35° C., and at various time points 30 μl samples were removed, mixed 1:1 with 25 mg/ml activated carbon, serially diluted in sterile phosphate buffered saline supplemented with 0.05% Tween 20, and spotted onto Mueller Hinton Agar plates to enable cfu quantification. Colonies were counted and the cfu/ml at each time point calculated by based on the dilution factor and volume spotted.
The subject of test [5] is MRSA strain USA300.
Test [6] has as its target T1, E. coli SPase (Escherichia coli, UniProt P00803).
T1 construct: Full length His-tagged E. coli SPase proteins; His; made in house; host or cells: E. coli BL21(DE3)
Kind of test: Biochemical SPase activity assay, fluorogenic peptide substrate, E. coli enzyme. Conditions: 20 μM substrate, 10 minutes preincubation, read-out: IC 50 (nM) E. coli.

Test [7] deals with S. aureus SPase (Staphylococcus aureus, UniProt P0A070). Kind of test: biochemical. The conditions noted are these: IC 50 (nM) S. aureus, 20 μM substrate, 10 minutes preincubation.
Sequence of S. aureus SPase (P0A070 whole entry): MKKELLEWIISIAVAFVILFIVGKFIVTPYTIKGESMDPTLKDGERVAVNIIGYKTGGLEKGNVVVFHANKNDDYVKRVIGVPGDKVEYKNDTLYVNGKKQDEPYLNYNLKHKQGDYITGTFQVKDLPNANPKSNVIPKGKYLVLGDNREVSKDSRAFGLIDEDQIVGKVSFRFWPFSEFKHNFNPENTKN
Setting [8] is: MRSA USA300, partner Amoxicillin/Clav at 1/4x its MIC.
Where [9] appears, read: MRSA USA300, partner Ampicillin at 1/4x its MIC.
The mark [10] stands for this setting: MRSA USA300, partner Azlocillin at 1/4x its MIC.
Setting [11] is: MRSA USA300, partner Biapenem at 1/4x its MIC.
The mark [12] stands for this setting: MRSA USA300, partner Carbenicillin at 1/4x its MIC.
Where [13] appears, read: MRSA USA300, partner Cefaclor at 1/4x its MIC.
Where [14] appears, read: MRSA USA300, partner Cefamandole at 1/4x its MIC.
Where [15] appears, read: MRSA USA300, partner Cefazolin at 1/4x its MIC.
[16] abbreviates: MRSA USA300, partner Cefdinir at 1/4x its MIC.
The mark [17] stands for this setting: MRSA USA300, partner Cefepime at 1/4x its MIC.
Where [18] appears, read: MRSA USA300, partner Cefixime at 1/4x its MIC.
The mark [19] stands for this setting: MRSA USA300, partner Cefmetazole at 1/4x its MIC.
[20] abbreviates: MRSA USA300, partner Cefonicid at 1/4x its MIC.
Where [21] appears, read: MRSA USA300, partner Cefotaxime at 1/4x its MIC.
[22] abbreviates: MRSA USA300, partner Cefotetan at 1/4x its MIC.
The mark [23] stands for this setting: MRSA USA300, partner Cefoxitin at 1/4x its MIC.
Where [24] appears, read: MRSA USA300, partner Cefpodoxime at 1/4x its MIC.
[25] abbreviates: MRSA USA300, partner Cefprozil at 1/4x its MIC.
The mark [26] stands for this setting: MRSA USA300, partner Ceftazidime at 1/4x its MIC.
Where [27] appears, read: MRSA USA300, partner Ceftizoxime at 1/4x its MIC.
[28] abbreviates: MRSA USA300, partner Ceftriaxone at 1/4x its MIC.
Where [29] appears, read: MRSA USA300, partner Cephalothin at 1/4x its MIC.
Setting [30] is: MRSA USA300, partner Doripenem at 1/4x its MIC.
Where [31] appears, read: MRSA USA300, partner Ertapenem at 1/4x its MIC.
The mark [32] stands for this setting: MRSA USA300, partner Faropenem at 1/4x its MIC.
Setting [33] is: MRSA USA300, partner Imipenem at 1/4x its MIC.
Setting [34] is: MRSA USA300, partner Mecillinam at 1/4x its MIC.
Setting [35] is: MRSA USA300, partner Meropenem at 1/4x its MIC.
The mark [36] stands for this setting: MRSA USA300, partner Methicillin at 1/4x its MIC.
Where [37] appears, read: MRSA USA300, partner Mezlocillin at 1/4x its MIC.
[38] abbreviates: MRSA USA300, partner Moxalactam at 1/4x its MIC.
The mark [39] stands for this setting: MRSA USA300, partner Oxacillin at 1/4x its MIC.
Where [40] appears, read: MRSA USA300, partner Piperacillin/tazobactam at 1/4x its MIC.
Setting [41] is: MRSA USA300, partner Ticarcillin at 1/4x its MIC.

≈ marks a conversion by molar mass, not a printed value. Read-outs that look alike come from different tables or passages of the source. Where a SMILES comes first, the peptide text is derived from it. [ ]: non-standard residue; d: D form. The star is where a group is joined. boroAla((+)-pinanediol) = C[C@H](N*)B1O[C@@H]2C[C@@H]3C[C@@H](C3(C)C)[C@]2(C)O1; Propanoyl(3-decylamino) = CCCCCCCCCCNCCC(=O)*; X14 = O=C(c1ccc(Oc2ccc(Cl)cc2)cc1)*; Decanoyl = CCCCCCCCCC(=O)*; boroAla = C[C@H](N*)B(O)O; Dab = NCC[C@H](N)C(=O)O; Dap = NC[C@H](N)C(=O)O

T1 sequence (P00803 whole entry): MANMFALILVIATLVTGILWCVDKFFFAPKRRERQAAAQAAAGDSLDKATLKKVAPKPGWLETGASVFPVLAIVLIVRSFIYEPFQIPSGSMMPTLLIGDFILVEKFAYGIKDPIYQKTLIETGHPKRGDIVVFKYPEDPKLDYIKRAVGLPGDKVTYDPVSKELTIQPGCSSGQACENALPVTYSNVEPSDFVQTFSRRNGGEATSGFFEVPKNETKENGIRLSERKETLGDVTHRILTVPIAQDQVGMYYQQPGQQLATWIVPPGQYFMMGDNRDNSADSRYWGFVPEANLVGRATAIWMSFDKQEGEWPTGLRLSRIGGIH

`CCCCCCCCCCNCCC(=O)N[C@@H](CCCCN)C(=O)N[C@H](C(=O)N[C@@H](C)C(=O)N[C@@H](CCCCN)C(=O)N[C@@H](C)B1O[C@@H]2C[C@@H]3C[C@@H](C3(C)C)[C@]2(C)O1)[C@@H](C)O` [Compound 217] ({Propanoyl(3-decylamino)}-KTAK-{boroAla((+)-pinanediol)}): the “MIC (μg/mL) E. coli” value in test [1] came to 23 µg/mL (≈ 26.7 µM). In addition, the “MIC (μg/mL) S. aureus” value in test [2] is 0.31 µg/mL (≈ 0.359 µM). For the same compound, the “sum of the FICs” value in test [3] was less than 0.5. Moreover, the “time-kill: reduction of viable cells, combination vs either agent alone” value in test [4] was “synergistic”. For the same compound, the “Compound 217 SIC” value in test [5] (setting [8]) was found to be 0.125 µg/mL; in test [5] (setting [9]) it was 0.25 µg/mL; in test [5] (setting [10]), 0.125 µg/mL; in test [5] (setting [11]), 0.0156 µg/mL; in test [5] (setting [12]), 0.125 µg/mL; in test [5] (setting [13]) it was 0.125 µg/mL. Besides, the “Compound 217 SIC” value is 0.125 µg/mL in test [5] (setting [14]); 0.0625 µg/mL in test [5] (setting [15]); 0.0078 µg/mL in test [5] (setting [16]); 0.03125 µg/mL in test [5] (setting [17]); 0.0625 µg/mL in test [5] (setting [18]); 0.125 µg/mL in test [5] (setting [19]). Further, the “Compound 217 SIC” value worked out at 0.125 µg/mL in test [5] (setting [20]); 0.0625 µg/mL in test [5] (setting [21]); 0.125 µg/mL in test [5] (setting [22]); 0.125 µg/mL in test [5] (setting [23]); 0.0625 µg/mL in test [5] (setting [24]); 0.125 µg/mL in test [5] (setting [25]). Moreover, the “Compound 217 SIC” value in test [5] (setting [26]) worked out at 0.125 µg/mL; in test [5] (setting [27]) it was 0.0625 µg/mL; in test [5] (setting [28]), 0.03125 µg/mL; in test [5] (setting [29]), 0.03125 µg/mL; in test [5] (setting [30]) it was 0.03125 µg/mL; in test [5] (setting [31]), 0.125 µg/mL. Moreover, the “Compound 217 SIC” value in test [5] (setting [33]) is 0.03125 µg/mL; in test [5] (setting [34]), 0.25 µg/mL; in test [5] (setting [35]), 0.01563 µg/mL; in test [5] (setting [36]) it was 0.125 µg/mL; in test [5] (setting [37]), 0.125 µg/mL; in test [5] (setting [38]), 0.03125 µg/mL. In addition, the entries for the “Compound 217 SIC” value in test [5] (setting [39]), in test [5] (setting [40]) and in test [5] (setting [41]) were 0.0625 µg/mL, 0.125 µg/mL and 0.0625 µg/mL, respectively. Besides, the “Fold reduction in Compound 217 MIC” value turned out to be 4 in test [5] (setting [8]); 2 in test [5] (setting [9]); 4 in test [5] (setting [10]); 32 in test [5] (setting [11]); 4 in test [5] (setting [12]); 4 in test [5] (setting [13]). Moreover, the “Fold reduction in Compound 217 MIC” value worked out at 4 in test [5] (setting [14]); 8 in test [5] (setting [15]); 64 in test [5] (setting [16]); 16 in test [5] (setting [17]); 8 in test [5] (setting [18]); 4 in test [5] (setting [19]). The “Fold reduction in Compound 217 MIC” value in test [5] (setting [20]) is given as 4; in test [5] (setting [21]), 8; in test [5] (setting [22]), 4; in test [5] (setting [23]), 4; in test [5] (setting [24]) it was 8; in test [5] (setting [25]) it was 4. For the same compound, the “Fold reduction in Compound 217 MIC” value in test [5] (setting [26]) is recorded as 4; in test [5] (setting [27]), 8; in test [5] (setting [28]), 16; in test [5] (setting [29]), 16; in test [5] (setting [30]), 16; in test [5] (setting [31]), 4. Besides, the “Fold reduction in Compound 217 MIC” value is on record as greater than 128 in test [5] (setting [32]); 16 in test [5] (setting [33]); 2 in test [5] (setting [34]); 32 in test [5] (setting [35]); 4 in test [5] (setting [36]); 4 in test [5] (setting [37]). The “Fold reduction in Compound 217 MIC” value in test [5] (setting [38]) worked out at 16; in test [5] (setting [39]) it was 8; in test [5] (setting [40]), 4; in test [5] (setting [41]) it was 8. The “Compound 217 SIC (μg/ml)” value in test [5] (setting [32]) was “≦0.0039 μg/ml”. Moreover, in test [5] (MRSA strain USA300, partner beta-lactam: None), the “Compound 217 MIC” value came out at 0.5 µg/mL. In test [5] (partner beta-lactam at 1/4x its MIC), the “synergy with partner beta-lactam antibiotics (SIC ≤ 1/4 MIC)” value is listed as “synergize”.
As to `C[C@H](NC(=O)[C@H](CCCCN)NC(=O)[C@H](C)NC(=O)[C@@H](NC(=O)[C@H](CN)NC(=O)c1ccc(Oc2ccc(Cl)cc2)cc1)[C@@H](C)O)B1O[C@@H]2C[C@@H]3C[C@@H](C3(C)C)[C@]2(C)O1` [Compound 129] (X14-[Dap]TAK-{boroAla((+)-pinanediol)}), in test [1], the “MIC (μg/mL) E. coli” value was 4 µg/mL (≈ 4.76 µM). Further, the “MIC (μg/mL) S. aureus” value in test [2] stood at 2.8 µg/mL (≈ 3.33 µM). Moreover, the IC50 in test [6] is 3.6 nM; in test [7] it was 120 nM.
Consider `CCCCc1ccc(-c2ccc(C(=O)N[C@@H](CCN)C(=O)N[C@H](C(=O)N[C@@H](C)C(=O)N[C@@H](CCCCN)C(=O)N[C@@H](C)C(=O)C3(C)CO3)[C@@H](C)O)cc2)cc1` (single isomer, unassigned) [Compound 207 P1], for which the “MIC (μg/mL) E. coli” value in test [1] (listed as 207 P1) came out at 8 µg/mL (≈ 10.4 µM). In addition, the “MIC (μg/mL) S. aureus” value in test [2] (listed as 207 P1) is 5.7 µg/mL (≈ 7.44 µM). Also, the IC50 in test [6] was determined as 1800 nM; in test [7], 1400 nM.
As to `CCCCCCCCCC(=O)N[C@@H](CCN)C(=O)N[C@H](C(=O)N[C@@H](C)C(=O)N[C@@H](CCCCN)C(=O)N[C@@H](C)B(O)O)[C@@H](C)O` [Compound 120] (Decanoyl-[Dab]TAK-boroAla), in test [1], the “MIC (μg/mL) E. coli” value was 11 µg/mL (≈ 17.1 µM). In addition, the “MIC (μg/mL) S. aureus” value in test [2] worked out at 2.8 µg/mL (≈ 4.35 µM). In addition, the IC50 in test [6] stood at 21 nM; in test [7], 120 nM.
